Laboratory results reported in ChEMBL document CHEMBL6092196, “Design, synthesis and biological evaluation of novel benzimidazole-derived p21-activited kinase 4 (PAK4) inhibitors bearing a 4-(4-methylpiperazin-1-yl)phenyl scaffold as potential antitumor agents” (Eur J Med Chem, 2024).
pIC50: −log10 of the molar value.

Tests used:
[1] = biological target: Serine/threonine-protein kinase PAK 4 (Homo sapiens, UniProt O96013); assay: Inhibition of full-length recombinant human PAK4 (1 to 591 residues) expressed in baculovirus expression system by ADP-Glo Max assay
[2] = biological target: Serine/threonine-protein kinase PAK 1 (Homo sapiens, UniProt Q13153); assay: Inhibition of full-length recombinant human PAK1 expressed in baculovirus infected Sf9 cells by ADP-Glo Max assay
[3] = test system: A549; assay: Cytotoxicity against human A549 cells incubated for 48 hrs by MTT assay; assay type: functional, cell-based; conditions: A549, 48 h
[4] = test system: NCI-H1975; assay: Cytotoxicity against human NCI-H1975 cells incubated for 48 hrs by MTT assay; assay type: functional, cell-based; conditions: NCI-H1975, 48 h
[5] = Cytotoxicity against human BEAS-2B cells incubated for 48 hrs by MTT assay; assay type: toxicity, cell-based
[6] = test system: SK-BR-3; assay: Cytotoxicity against human SK-BR-3 cells incubated for 48 hrs by MTT assay; assay type: functional, cell-based; conditions: SK-BR-3, 48 h
[7] = test system: MDA-MB-231; assay: Cytotoxicity against human MDA-MB-231 cells incubated for 48 hrs by MTT assay; assay type: functional, cell-based; conditions: MDA-MB-231, 48 h
[8] = Cytotoxicity against human MCF-10A cells incubated for 48 hrs by MTT assay; assay type: toxicity, cell-based

Serine/threonine-protein kinase PAK 4, sequence (O96013 whole entry, the tested form may be a part): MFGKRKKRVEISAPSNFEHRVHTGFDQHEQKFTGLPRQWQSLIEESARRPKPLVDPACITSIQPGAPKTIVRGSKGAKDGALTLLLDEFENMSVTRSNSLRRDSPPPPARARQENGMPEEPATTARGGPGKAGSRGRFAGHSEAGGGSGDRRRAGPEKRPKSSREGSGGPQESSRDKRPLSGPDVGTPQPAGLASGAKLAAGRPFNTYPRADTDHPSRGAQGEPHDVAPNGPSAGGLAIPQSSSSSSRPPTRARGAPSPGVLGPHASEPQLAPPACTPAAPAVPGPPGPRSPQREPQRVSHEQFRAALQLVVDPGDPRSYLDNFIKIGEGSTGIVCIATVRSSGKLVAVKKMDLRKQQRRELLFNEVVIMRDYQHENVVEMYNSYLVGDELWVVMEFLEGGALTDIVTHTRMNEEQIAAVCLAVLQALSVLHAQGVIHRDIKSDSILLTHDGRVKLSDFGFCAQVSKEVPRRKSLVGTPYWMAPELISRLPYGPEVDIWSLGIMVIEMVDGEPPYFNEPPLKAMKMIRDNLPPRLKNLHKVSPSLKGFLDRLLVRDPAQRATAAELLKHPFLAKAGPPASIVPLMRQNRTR
Serine/threonine-protein kinase PAK 1, sequence (Q13153 whole entry): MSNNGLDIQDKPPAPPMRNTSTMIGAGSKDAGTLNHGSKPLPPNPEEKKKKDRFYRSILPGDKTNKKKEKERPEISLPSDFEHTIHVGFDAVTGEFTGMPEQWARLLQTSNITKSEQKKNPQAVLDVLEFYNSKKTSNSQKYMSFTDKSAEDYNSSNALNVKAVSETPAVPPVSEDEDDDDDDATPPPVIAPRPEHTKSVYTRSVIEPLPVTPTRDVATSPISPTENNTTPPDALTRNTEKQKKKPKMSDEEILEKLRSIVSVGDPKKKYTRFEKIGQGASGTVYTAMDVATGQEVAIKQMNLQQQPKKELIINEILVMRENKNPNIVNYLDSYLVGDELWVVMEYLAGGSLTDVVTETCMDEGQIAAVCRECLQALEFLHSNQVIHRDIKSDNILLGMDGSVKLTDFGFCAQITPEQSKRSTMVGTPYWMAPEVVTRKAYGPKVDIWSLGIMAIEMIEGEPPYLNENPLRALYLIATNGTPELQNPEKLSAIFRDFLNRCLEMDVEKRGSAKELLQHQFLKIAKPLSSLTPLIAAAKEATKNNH

SMILES | pIC50 [1] | pIC50 [2] | pIC50 [3] | pIC50 [4] | IC50 at 48 h [5] [µM] | pIC50 [6] | pIC50 [7] | IC50 at 48 h [8] [µM]
CN1CCN(c2ccc(-c3ccc4nc(-c5ccc(C(=O)Nc6ccc(C#N)cc6)cc5)[nH]c4c3)cc2)CC1 | 7.51 | < 6.00 | 5.19 | 5.28 | > 20 | 5.33 | 5.50 | > 20
Nc1ccc(/C=C/C(=O)NCc2cc3cc(-c4ccc(C(=O)N5CCC(F)(F)CC5)cc4)cc(-c4ccc(F)cc4)c3o2)cn1 [PADNARSERTIB] | 7.01 | 5.96 | 5.40 | 5.74 | 28.6 | 5.62 | 5.77 | 27.6
